Experiments:
Assay in all cases: relative viability (nuclei count vs DMSO), 5 days (fraction); higher = more cells survive
[1] = tested on: A-427
Method in brief: (§1)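 Lung cancer cell lines, seeded in 1536-well plates, were treated the following day by pin tool with a single drug or with five library-drug doses (not always all listed) in √10 steps on top of a fixed anchor-drug dose. Cells were fixed and nuclei stained in one step after 5 days, and nuclei were counted. Relative viability is the nuclei count for treated wells divided by that for vehicle wells, reported as medians of duplicate plates.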

[2] = tested on: COR-L 105
Method in brief: as §1

[3] = tested on: H3255
Method in brief: as §1

[4] = tested on: HCC-44
Method in brief: as §1

[5] = tested on: HCC-827
Method in brief: as §1

[6] = tested on: LOU-NH91
Method in brief: as §1

[7] = tested on: LXF-289
Method in brief: as §1

[8] = tested on: NCI-H1792
Method in brief: as §1

[9] = tested on: NCI-H1793
Method in brief: as §1

[10] = tested on: NCI-H1915
Method in brief: as §1

[11] = tested on: NCI-H1944
Method in brief: as §1

[12] = tested on: NCI-H1975
Method in brief: as §1

[13] = tested on: NCI-H1993
Method in brief: as §1

[14] = tested on: NCI-H2023
Method in brief: as §1

[15] = tested on: NCI-H2087
Method in brief: as §1

[16] = tested on: NCI-H2170
Method in brief: as §1

[17] = tested on: NCI-H358
Method in brief: as §1

[18] = tested on: NCI-H520
Method in brief: as §1

[19] = tested on: SK-MES-1
Method in brief: as §1

[20] = tested on: SW 1573
Method in brief: as §1

CN1CCN(CCOc2cc(OC3CCOCC3)c3c(Nc4c(Cl)ccc5c4OCO5)ncnc3c2)CC1 [Saracatinib] + CS(=O)(=O)CCNCc1ccc(-c2ccc3ncnc(Nc4ccc(OCc5cccc(F)c5)c(Cl)c4)c3c2)o1 [Lapatinib] (partner 2 µM)
relative viability ([1]; first compound 0.02 µM): 0.921 | relative viability ([1]; first compound 0.2 µM): 0.877 | relative viability ([1]; first compound 0.6325 µM): 1.07 | relative viability ([1]; first compound 2 µM): 1.04 | relative viability ([2]; first compound 0.02 µM): 0.389 | relative viability ([2]; first compound 0.2 µM): 0.281 | relative viability ([2]; first compound 0.6325 µM): 0.311 | relative viability ([2]; first compound 2 µM): 0.279 | relative viability ([3]; first compound 0.02 µM): 0.27 | relative viability ([3]; first compound 0.2 µM): 0.241 | relative viability ([3]; first compound 0.6325 µM): 0.271 | relative viability ([3]; first compound 2 µM): 0.239 | relative viability ([4]; first compound 0.02 µM): 1.01 | relative viability ([4]; first compound 0.2 µM): 0.902 | relative viability ([4]; first compound 0.6325 µM): 1.17 | relative viability ([4]; first compound 2 µM): 1.15 | relative viability ([5]; first compound 0.02 µM): 0.174 | relative viability ([5]; first compound 0.2 µM): 0.202 | relative viability ([5]; first compound 0.6325 µM): 0.199 | relative viability ([5]; first compound 2 µM): 0.163 | relative viability ([6]; first compound 0.02 µM): 0.824 | relative viability ([6]; first compound 0.2 µM): 0.713 | relative viability ([6]; first compound 0.6325 µM): 0.747 | relative viability ([6]; first compound 2 µM): 0.652 | relative viability ([7]; first compound 0.02 µM): 0.95 | relative viability ([7]; first compound 0.2 µM): 0.895 | relative viability ([7]; first compound 0.6325 µM): 0.955 | relative viability ([7]; first compound 2 µM): 0.901 | relative viability ([8]; first compound 0.02 µM): 0.968 | relative viability ([8]; first compound 0.2 µM): 0.778 | relative viability ([8]; first compound 0.6325 µM): 1.05 | relative viability ([8]; first compound 2 µM): 0.849 | relative viability ([9]; first compound 0.02 µM): 0.894 | relative viability ([9]; first compound 0.2 µM): 0.587 | relative viability ([9]; first compound 0.6325 µM): 0.974 | relative viability ([9]; first compound 2 µM): 0.76 | relative viability ([10]; first compound 0.02 µM): 0.987 | relative viability ([10]; first compound 0.2 µM): 0.917 | relative viability ([10]; first compound 0.6325 µM): 0.955 | relative viability ([10]; first compound 2 µM): 0.819 | relative viability ([11]; first compound 0.02 µM): 0.808 | relative viability ([11]; first compound 0.6325 µM): 0.872 | relative viability ([11]; first compound 2 µM): 0.459 | relative viability ([12]; first compound 0.02 µM): 1.03 | relative viability ([12]; first compound 0.6325 µM): 0.819 | relative viability ([12]; first compound 2 µM): 0.687 | relative viability ([13]; first compound 0.02 µM): 0.864 | relative viability ([13]; first compound 0.2 µM): 0.737 | relative viability ([13]; first compound 2 µM): 0.691 | relative viability ([14]; first compound 0.02 µM): 1.33 | relative viability ([14]; first compound 0.2 µM): 0.701 | relative viability ([14]; first compound 0.6325 µM): 0.998 | relative viability ([14]; first compound 2 µM): 0.698 | relative viability ([15]; first compound 0.02 µM): 1.1 | relative viability ([15]; first compound 0.2 µM): 1.03 | relative viability ([15]; first compound 0.6325 µM): 1.25 | relative viability ([15]; first compound 2 µM): 0.981 | relative viability ([16]; first compound 0.02 µM): 0.28 | relative viability ([16]; first compound 0.2 µM): 0.246 | relative viability ([16]; first compound 0.6325 µM): 0.293 | relative viability ([16]; first compound 2 µM): 0.231 | relative viability ([17]; first compound 0.02 µM): 0.471 | relative viability ([17]; first compound 0.2 µM): 0.535 | relative viability ([17]; first compound 0.6325 µM): 0.418 | relative viability ([17]; first compound 2 µM): 0.384 | relative viability ([18]; first compound 0.02 µM): 0.853 | relative viability ([18]; first compound 0.2 µM): 0.693 | relative viability ([18]; first compound 0.6325 µM): 0.708 | relative viability ([18]; first compound 2 µM): 0.574 | relative viability ([19]; first compound 0.02 µM): 0.442 | relative viability ([19]; first compound 0.2 µM): 0.425 | relative viability ([19]; first compound 0.6325 µM): 0.47 | relative viability ([19]; first compound 2 µM): 0.41 | relative viability ([20]; first compound 0.02 µM): 1.27 | relative viability ([20]; first compound 0.2 µM): 1.1 | relative viability ([20]; first compound 0.6325 µM): 1.16 | relative viability ([20]; first compound 2 µM): 1.14
